From patent publication US20110143948A1, “MOLECULAR SIGNATURES AND BIOMARKERS ASSOCIATED WITH MELANOMA AND METHODS OF USE THEREOF” (priority 2008, published 2011)

Test system: ncRNAs (SEQ ID NO 28-89)
Experiment: ncRNA arrays of melanocytes, keratinocytes, normal skin, melanoma cell lines and patient samples
Design: species or system human
Details: for ncRNA array expression, patient 2: melanoma patient 2 sample compared to normal skin; for ncRNA array expression, patient 3: melanoma patient 3 sample compared to normal skin; for ncRNA array expression, patient 4: melanoma patient 4 sample compared to normal skin; for ncRNA array expression, patient 5: melanoma patient 5 sample compared to normal skin; for ncRNA array expression, patient 6: melanoma patient 6 sample compared to normal skin; for ncRNA array expression, patient 7: melanoma patient 7 sample compared to normal skin; for ncRNA array expression, patient 8: melanoma patient 8 sample compared to normal skin; for ncRNA array expression, patient 9: melanoma patient 9 sample compared to normal skin; for ncRNA array expression, patient 10: melanoma patient 10 sample compared to normal skin; for ncRNA array expression, patient 19: melanoma patient 19 sample compared to normal skin; for ncRNA array expression, patient 20: melanoma patient 20 sample compared to normal skin; for ncRNA array expression, patient 21: melanoma patient 21 sample compared to normal skin; for ncRNA array expression, patient 22: melanoma patient 22 sample compared to normal skin; for ncRNA array expression, patient 23: melanoma patient 23 sample compared to normal skin; for ncRNA array expression, patient 24: melanoma patient 24 sample compared to normal skin; for ncRNA array expression, patient 25: melanoma patient 25 sample compared to normal skin; for ncRNA array expression, patient 26: melanoma patient 26 sample compared to normal skin; for ncRNA array expression, patient 27: melanoma patient 27 sample compared to normal skin; for ncRNA array expression, patient 28: melanoma patient 28 sample compared to normal skin; for ncRNA array expression, patient 29: melanoma patient 29 sample compared to normal skin; for ncRNA array expression, patient 30: melanoma patient 30 sample compared to normal skin
How it was run: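 Differential ncRNA expression was defined against melanocytes or normal skin after subtracting keratinocyte-specific signals, with confirmation by qRT-PCR and Northern blot. Samples were melanoma cell lines, patient tumours, melanocytes, keratinocytes and normal skin, hybridised to a >10,000-probe (>200 nt) ncRNA array that also carries RefSeq mRNA probes.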

Substance	ncRNA array expression, patient 2	ncRNA array expression, patient 3	ncRNA array expression, patient 4	ncRNA array expression, patient 5	ncRNA array expression, patient 6	ncRNA array expression, patient 7	ncRNA array expression, patient 8	ncRNA array expression, patient 9	ncRNA array expression, patient 10	ncRNA array expression, patient 19	ncRNA array expression, patient 20	ncRNA array expression, patient 21	ncRNA array expression, patient 22	ncRNA array expression, patient 23	ncRNA array expression, patient 24	ncRNA array expression, patient 25	ncRNA array expression, patient 26	ncRNA array expression, patient 27	ncRNA array expression, patient 28	ncRNA array expression, patient 29	also measured
SEQ ID NO 85 (TGAGGGGAGAGGGGATGGGAAACATTAGGGCTGGGTTCATGTAAAGGGACCAGCATTGTG; listed as DNA, chemistry not given here; listed as Homo sapiens)	−3.042	−2.236	−3.353	−3.144	−1.878	−3.331	−3.241	−3.15	−2.88	−2.497	−3.4136	−3.4	−1.235	−0.784	−3.14	−3.2	−3.139	−3.328	−3.261	−3.3212	ncRNA array expression, patient 30: 0.6346
SEQ ID NO 86 (AAAATTATTTTATCTTAAGTTTCCATTTAGTTGATTAAAAATAGGGTTATGAATGTTAAA; listed as DNA, chemistry not given here; listed as Homo sapiens)	2.021	1.628	5.076	−0.09781	−0.05485	−0.1079	0.751	0.02401	1.097	1.409	0.8906	1.056	−0.01773	−0.00853	2.72	3.621	3.088	5.119	−0.07222	−0.07156	ncRNA array expression, patient 30: 1.029
SEQ ID NO 87 (GGGATATTTTTAAGGGGAAGGGGAAGGATAGAGAGAAAGTGCAGGCAGGGCTGGGGTCTG; listed as DNA, chemistry not given here; listed as Homo sapiens)	−2.131	−1.6373	−2.999	−2.972	−2.3216	−2.468	−2.76	−1.536	−1.881	−0.8262	−1.935	−2.079	−1.312	−2	−3.011	−2.33	−2.364	−2.214	−2.17	−2.373	ncRNA array expression, patient 30: 0.7984
SEQ ID NO 88 (CTGTTGCTTATTCTGGGAGCCCAATCCTAGGCTGAGGGAGGTGGGCGCGGGGCTGTTTAA; listed as DNA, chemistry not given here; listed as Homo sapiens)	−1.501	−1.118	−1.158	−1.192	−0.882	−1.165	−1.206	−1.551	−1.883	−0.5619	−1.6443	−1.527	−0.8009	−0.3034	−1.128	−1.933	−1.942	−2.173	−1.861	−2.1207	ncRNA array expression, patient 30: 0.7208
SEQ ID NO 89 (GGACACAGAGAGTCATGCACCAGCCCAGTGAGAACCAATTCAGAGCCAAATGCCAAACCC; listed as DNA, chemistry not given here; listed as Homo sapiens)	−1.09	−1.2821	−1.434	−1.049	−0.6535	−0.5162	−1.137	−1.442	−1.643	−0.5304	−0.7949	−1.104	−0.9143	−0.3405	−0.9409	−1.675	−1.6	−0.9956	−0.9677	−1.266	ncRNA array expression, patient 30: 0.7591
